Measurements taken from PMC10987480, “Biological and mutational analyses of CXCR4–antagonist interactions and design of new antagonistic analogs” (Bioscience Reports, 2023).
Positions of bridges follow the written chain, without caps; N, C: chain ends. Non-standard residues stand in square brackets, D forms with d. Chains are numbered I, II in the order given. No end group written: not given here.

Experiments:
CXCR4 R30A = target: T1, CXCR4 R30A (Homo sapiens, UniProt P61073, R30A); assay: Competitive binding to CXCR4 mutant R30A (12G5, CHO cells); set-up: key to the marks not given beside the values; settings: TM1, class of reduction vs wild-type CXCR4, 12G5 competition, averages of at least three independent experiments
T1 construct: expressed in transfected cells
T1 sequence (P61073 whole entry R30A): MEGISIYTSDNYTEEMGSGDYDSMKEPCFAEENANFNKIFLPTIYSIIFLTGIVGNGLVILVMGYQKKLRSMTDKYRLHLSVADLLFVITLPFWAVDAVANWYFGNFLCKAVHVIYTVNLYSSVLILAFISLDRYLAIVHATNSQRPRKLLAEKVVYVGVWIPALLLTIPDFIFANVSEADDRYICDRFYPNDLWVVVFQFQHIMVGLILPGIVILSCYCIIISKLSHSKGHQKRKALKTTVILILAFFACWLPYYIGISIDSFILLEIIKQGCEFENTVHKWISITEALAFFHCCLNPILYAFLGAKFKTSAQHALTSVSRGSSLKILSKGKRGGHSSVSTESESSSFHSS
Experimental: (§1) Plasmid pcDNA3-CXCR4 and mutated pcDNA3-CXCR4 were extracted and transfected into CHO cells using Lipofectamine 2000 according to the manufacturer’s guidelines. The selective medium containing G418 at a concentration of 1.2 mg/ml was applied to isolate stably transfected cells. CHO cells expressing wild-type CXCR4 and mutant CXCR4 were obtained using fluorescence-activated cell sorting (FACS).
(§2) All of the CXCR4 mutants were prepared using PCR technology. Briefly, pairs of asymmetrical primers containing the desired amino acid mutations (Supplementary Tables S1 and S2), each complementary to opposite strands of the pcDNA3–CXCR4, were designed for amplification by Q5® High-Fidelity DNA polymerase and the generation of mutated constructs. The methylated pcDNA3–CXCR4 templates were digested by DpnI. The mutated pcDNA3–CXCR4 was transformed into competent E. coli TOP10 for long-term storage and amplification.
(§3) The procedure for the CXCR4 competitive binding experiments was published previously. Briefly, CXCR4 antibody 12G5 (250 ng/ml) was incubated with 5 × 10^5 cells and varying concentrations of unlabeled compounds in a final volume of 100 μl of assay buffer (PBS with 0.5% BSA and 0.05% NaN3) in 96-well plates for 40 min on ice, after being washed with assay buffer once. The cells were incubated with FITC-conjugated second antibody IgG for 30 min on ice, then washed with assay buffer three times. The fluorescence intensity was measured for excitation at 485 nm and emission at 535 nm using multimode plate reader (PerkinElmer). The IC50 values were calculated using graphpad Prism 7. Experiments were performed at least three times.

CXCR4 [1] = target: T2, CXCR4 (Homo sapiens, UniProt P61073); assay: SDF-1α-induced cell migration assay in SupT1 cells (transwell); format: cell-based; set-up: host or cells: SupT1 cells; settings: 2 nM SDF-1α, 30 min pre-incubation, 3 h migration
T2 sequence (P61073 whole entry): as the sequence (P61073 whole entry R30A) above, with A30R counted along it
Experimental: Figure 2 The inhibitory effect of the antagonists on SDF-1α-induced cell chemotaxis and calcium mobilization in SupT1 cells The antagonists and concentrations used were labeled in each lane. (A) The inhibition of cell migration by the noted antagonists. SupT1 cells pre-treated with or without CXCR4 antagonists were seeded in the upper well and cell migrated by 2 nM SDF-1α. Migrated cells without SDF-1α were used as a negative (0%) and migrated cell induced by SDF-1α as a positive control (100%). […] SupT1 cells were treated with or without CXCR4 antagonists and activated by 50 nM SDF-1α. To directly compare the inhibitory effect of the antagonists on calcium mobilization, the vehicle background and baseline were removed using GraphPad and Origin. The data were averages of at least three independent experiments.
SupT1 cells (2 × 10^6 cells per well in 75 μl) were collected and washed using assay buffer (RPMI 1640 supplemented with 0.5% BSA) and incubated with various concentrations of tested compounds for 30 min in the upper well of the transwell-96 well plates with 5.0 µm pore polycarbonate membrane insert (Corning, U.S.A.). Then, 200 μl assay buffer containing 2 nM SDF-1α was added to the lower well and cells were allowed to migrate for 3 h. Migrated cells were measured using celltiter-96 reagent.

CXCR4 H281A = target: T3, CXCR4 H281A (Homo sapiens, UniProt P61073, H281A); assay: Competitive binding to CXCR4 mutant H281A (12G5, CHO cells); settings: TM7, class of reduction vs wild-type CXCR4, 12G5 competition, averages of at least three independent experiments
T3 construct: expressed in transfected cells
T3 sequence (P61073 whole entry H281A): as the sequence (P61073 whole entry R30A) above, with A30R, H281A counted along it
Experimental: as §1, §2, §3

CXCR4 H113A = target: T4, CXCR4 H113A (Homo sapiens, UniProt P61073, H113A); assay: Competitive binding to CXCR4 mutant H113A (12G5, CHO cells); settings: TM3, class of reduction vs wild-type CXCR4, 12G5 competition, averages of at least three independent experiments
T4 construct: expressed in transfected cells
T4 sequence (P61073 whole entry H113A): as the sequence (P61073 whole entry R30A) above, with A30R, H113A counted along it
Experimental: as §1, §2, §3

CXCR4 H203A = target: T5, CXCR4 H203A (Homo sapiens, UniProt P61073, H203A); assay: Competitive binding to CXCR4 mutant H203A (12G5, CHO cells); settings: TM5, class of reduction vs wild-type CXCR4, 12G5 competition, averages of at least three independent experiments
T5 construct: expressed in transfected cells
T5 sequence (P61073 whole entry H203A): as the sequence (P61073 whole entry R30A) above, with A30R, H203A counted along it
Experimental: as §1, §2, §3

CXCR4 [2] = target: T2, CXCR4; assay: Competitive CXCR4 binding assay (12G5 antibody probe), wild-type CXCR4 transfected CHO cells; set-up: expressed in transfected cells; Competitive receptor binding activity, wild-type CXCR4 (WT): key to the marks not given beside the values; settings: class relative to wild-type; 12G5 competition, stably transfected CHO cells; averages of at least three independent experiments
Experimental: The CXCR4-specific antibody, 12G5 was used as a probe for the competitive CXCR4 binding assay to evaluate the binding activity of CXCR4 antagonists.
Figure 1 Competitive CXCR4 binding curves of eleven CXCR4 antagonists The CXCR4 transfected CHO cells were incubated with different concentrations of antagonists and 250 ng/ml 12G5 antibody. The CXCR4-binding 12G5 antibody was recognized by FITC-conjugated anti-IgG second antibody. The cells treated with only second antibody were used as a negative control (0%) while cells treated with both 12G5 antibody and second antibody were used as a positive control (100%). Cells treated with CXCR4 antagonists were calculated in percentage relative to the positive and negative controls. The data were averages of at least three independent experiments and shown as mean ± standard error of the mean (S.E.M.).
as §3

CXCR4 Y45A = target: T6, CXCR4 Y45A (Homo sapiens, UniProt P61073, Y45A); assay: Competitive binding to CXCR4 mutant Y45A (12G5, CHO cells); settings: TM1, class of reduction vs wild-type CXCR4, 12G5 competition, averages of at least three independent experiments
T6 construct: expressed in transfected cells
T6 sequence (P61073 whole entry Y45A): as the sequence (P61073 whole entry R30A) above, with A30R, Y45A counted along it
Experimental: as §1, §2, §3

CXCR4 D193A = target: T7, CXCR4 D193A (Homo sapiens, UniProt P61073, D193A); assay: Competitive binding to CXCR4 mutant D193A (12G5, CHO cells); settings: TM4, class of reduction vs wild-type CXCR4, 12G5 competition, averages of at least three independent experiments
T7 construct: expressed in transfected cells
T7 sequence (P61073 whole entry D193A): as the sequence (P61073 whole entry R30A) above, with A30R, D193A counted along it
Experimental: as §1, §2, §3

CXCR4 W195A = target: T8, CXCR4 W195A (Homo sapiens, UniProt P61073, W195A); assay: Competitive binding to CXCR4 mutant W195A (12G5, CHO cells); settings: TM4, class of reduction vs wild-type CXCR4, 12G5 competition, averages of at least three independent experiments
T8 construct: expressed in transfected cells
T8 sequence (P61073 whole entry W195A): as the sequence (P61073 whole entry R30A) above, with A30R, W195A counted along it
Experimental: as §1, §2, §3

CXCR4 I284A = target: T9, CXCR4 I284A (Homo sapiens, UniProt P61073, I284A); assay: Competitive binding to CXCR4 mutant I284A (12G5, CHO cells); settings: TM7, class of reduction vs wild-type CXCR4, 12G5 competition, averages of at least three independent experiments
T9 construct: expressed in transfected cells
T9 sequence (P61073 whole entry I284A): as the sequence (P61073 whole entry R30A) above, with A30R, I284A counted along it
Experimental: as §1, §2, §3

CXCR4 W161A = target: T10, CXCR4 W161A (Homo sapiens, UniProt P61073, W161A); assay: Competitive binding to CXCR4 mutant W161A (12G5, CHO cells); settings: TM4, class of reduction vs wild-type CXCR4, 12G5 competition, averages of at least three independent experiments
T10 construct: expressed in transfected cells
T10 sequence (P61073 whole entry W161A): as the sequence (P61073 whole entry R30A) above, with A30R, W161A counted along it
Experimental: as §1, §2, §3

CXCR4 V112A = target: T11, CXCR4 V112A (Homo sapiens, UniProt P61073, V112A); assay: Competitive binding to CXCR4 mutant V112A (12G5, CHO cells); settings: TM3, class of reduction vs wild-type CXCR4, 12G5 competition, averages of at least three independent experiments
T11 construct: expressed in transfected cells
T11 sequence (P61073 whole entry V112A): as the sequence (P61073 whole entry R30A) above, with A30R, V112A counted along it
Experimental: as §1, §2, §3

Substance	Competitive receptor binding activity, CXCR4 R30A (CXCR4 R30A)	inhibition at 2 µM (CXCR4 [1]; SUP-T1, at 2 μM)	Competitive receptor binding activity, CXCR4 H281A (CXCR4 H281A)	Competitive receptor binding activity, CXCR4 H113A (CXCR4 H113A)	Competitive receptor binding activity, CXCR4 H203A (CXCR4 H203A)	Competitive receptor binding activity, wild-type CXCR4 (WT) (CXCR4 [2])	Competitive receptor binding activity, CXCR4 Y45A (CXCR4 Y45A)	Competitive receptor binding activity, CXCR4 D193A (CXCR4 D193A)	Competitive receptor binding activity, CXCR4 W195A (CXCR4 W195A)	Competitive receptor binding activity, CXCR4 I284A (CXCR4 I284A)	Competitive receptor binding activity, CXCR4 W161A (CXCR4 W161A)	Competitive receptor binding activity, CXCR4 V112A (CXCR4 V112A)	Inhibition of cell migration (CXCR4 [1]; at 50 nM)
I: [dL]G[dA][dS][dW][dH][dR][dP][dD][dK][dC][dC][dL]G[dY][dQ][dK][dR][dP][dL][dP] / II: [dL]G[dA][dS][dW][dH][dR][dP][dD][dK][dC][dC][dL]G[dY][dQ][dK][dR][dP][dL][dP] (disulfide I:11-II:11, I:12-II:12) [DV1 dimer]	+++	43%	++ (10–29% reduction compared with wild-type CXCR4)	+ (30–60% reduction compared with wild-type CXCR4)	++ (10–29% reduction compared with wild-type CXCR4)	+++	++ (10–29% reduction compared with wild-type CXCR4)	++ (10–29% reduction compared with wild-type CXCR4)	+++	+++	+++	+++	–
LGASWHRPDKCCLGYQKRPLPQVLLSSWYPTSQLCSKPGVIFLTKRGRQVCADKSKDWVKKLMQQLPVTAR [vMIP-II, viral macrophage-inflammatory protein-II, full-length natural chemokine antagonist produced by human herpesvirus-8; recombinant from Peprotech]	+++	–	+++	+++	+++	+++	+++	++ (10–29% reduction compared with wild-type CXCR4)	++ (10–29% reduction compared with wild-type CXCR4)	+++	+++	+++	64%
